In US7662776B2, “Treatment of tumors using short peptides from human chorionic gonadotropin (HCG)” (Biotempt B.V., priority 2005, dated 2010):
Entries after “also recorded” stand apart in the source; their conditions may differ. Peptide text beside a SMILES is read from it.

Columns and labels:
Format in all cases: in vivo, Mice (C57B16)
[1] = Toxicity during escalating dose experiment: animal weight, blood markers, leukocyte count (Example III)
Method: FIG. 5. During the escalating dose experiment toxicity of LQGV (SEQ ID NO:1) was evaluated by evaluation of blood markers for kidney and liver function and leukocyte count.
FIG. 6. During the escalating dose experiment toxicity of LQGV (SEQ ID NO:1) was evaluated by monitoring of animal weight.
Assessment of side-effects. Side-effects are monitored on daily basis. a) Weight of the animals is monitored daily. b) Behavior of the animals is observed. c) Animals are checked for possible side effects such as diarrhea.
During the experiment toxicity of the administered peptides was evaluated by monitoring of animal weight (FIG. 6) and by evaluation of blood markers for kidney and liver function and leukocyte count (FIG. 5). […] It is important to compare not only between the groups but also within the groups between individual mice.

[2] = test system: Lewis Lung Carcinoma (LLC); experiment: Tumor response in mice bearing LLC tumor during and after treatment with small peptides (Example II); conditions: for tumor growth curves compared with thalidomide: FIG. 1; for tumor growth curves compared with thalidomide / effect on tumor growth: result in words; for tumor volume day 21: average tumor volume on day 21, s.c. LLC, i.p. injection Mon/Wed/Fri; for tumor volume day 21 / mice showing a tumor response: 6 mice per group; for tumor control: mice with complete tumor control for 56 days / mice in group; for Response rate CR: number of mice with complete response; for Response rate CR / Response rate NC / Response rate PR / Response rate PD: of 6; for Response rate NC: number of mice with no change (stable disease); for Response rate PR: number of mice with partial remission; for Response rate PD: number of mice with progressive disease; for mice showing a tumor response: response = maximally a growth of 25% within seven days; for effect on tumor growth: i.p. peptide, LLC tumor
Method: Animals and tumor model: Mice (C57B16) are transplanted with the syngeneic Lewis Lung Carcinoma (LLC) subcutaneously.
Treatment modalities: mice are treated with small peptides or control substances beginning on the day of transplantation by i.p. injection. Mice are injected on Monday, Wednesday and Friday, until end of experiment. Experiment ends are based on: tumor size >20 mm, suffering of the animal, weight loss over 20%, ulcerations etc. Otherwise the experiment is terminated eight weeks after start.
Tumor diameter is measured in two directions by caliper measurements and tumor volume (V) is calculated using the formula V=0.4(A^2×B) (where B represents the largest diameter and A the diameter perpendicular to B). The classification of tumor response is: progressive disease (PD), increase of tumor volume (>50%) within seven days (between day 3 and day 10 after begin of treatment); stable disease, tumor volume equal to volume at day 3 in a range of −25% and +25%; partial remission (R), tumor volume −25% to −90%, and complete response CR, (no) measurable tumor at 56 days after start of treatment.
Tumor growth evaluation is terminated when a tumor diameter of 20 mm is reached.
Mice were treated with i.p. injections of peptides 24 hours after implantation of LLC tumor. In all mice receiving PBS tumor developed which reached on average a tumor volume of 1600 mm^3 in 21 days. Approximately tumor diameter was at that time point 16 mm. Thalidomide was used as a positive control.

[3] = test system: Lewis Lung Carcinoma (LLC); experiment: Escalating doses of peptide LQGV in Lewis Lung Carcinoma-bearing mice (Example III); conditions: for PD: number of mice with progressive disease (outgrowth); for TR: number of mice with tumor response (growth delay till day 20); for RR: tumor response rate
Method: FIG. 3 Tumor volume of Lewis Lung Carcinoma-bearing C57B16 mice treated with escalating doses of peptide LQGV (SEQ ID NO:1). Doses of 1.7, 5, 17, 50 and 170 mg/kg were tested.
Animals and tumor model. Mice (C57B16) are transplanted with the syngeneic Lewis Lung Carcinoma (LLC) subcutaneously. Treatment is stared 24 hours after implantation. The number of animals is eight per group to increase the power of this study. As we are starting the treatment when no tumor is palpable the change of error is larger compared to a study with established tumors. Treatment modalities: mice are treated with small peptides or sham control beginning one day after transplantation by i.p. injection. Mice will be injected on Monday, Wednesday and Friday, until end of experiment. Experiment ends based on criteria as tumor size >20 mm, suffering of the animal, weight loss over 20%, ulcerations. Otherwise the experiment will be terminated eight weeks after start.
Tumor diameter is measured in two directions by caliper measurements and tumor volume (V) is calculated using the formula V=0.4(A2×B) (where B represents the largest diameter and A the diameter perpendicular to B). The classification of tumor response is: progressive disease (PD), increase of tumor volume (>25%) within seven days; no change (NC), tumor volume equal to volume at start of treatment in a range of −25% and +25%; partial remission (PR), decrease of tumor volume between −25% and −90%; complete remission (CR), tumor volume less than 10% of initial volume. Tumor growth evaluation is terminated when a tumor diameter of 20 mm is reached.
Tumor volumes were analyzed using non-parametric testing for multiple groups (Kruskal Wallis) and pair wise comparison of the different groups using Mann Whitney.
Tumor response was evaluated slightly differently from proposed. As we start shortly after tumor induction, shrinkage of the tumor compared to before treatment cannot be made. […] So during the experimental time-frame outgrowth (progressive disease, PD) and tumor response (TR, growth delay till day 20) was evaluated. In Table 3 response rates are depicted.

[4] = escalating dose experiment, FIG. 5

## CC(C)C[C@H](N)C(=O)N[C@@H](CCC(N)=O)C(=O)NCC(=O)N[C@H](C(=O)O)C(C)C [LQGV, Leu Gln Gly Val] (H-LQGV-OH)
[1]; at all doses (1.7-170 mg/kg), FIG. 6
  effect on animal weight: no effect on animal weight
[1]; [4]
  effect on leukocyte number: no effect on leukocyte number
  effect on liver and kidney parameters (blood markers): did not affect the liver and kidney parameters
[2]
  tumor growth curves compared with thalidomide: comparable to Thalidomide; also recorded: comparable tumor growth curves
  tumor volume day 21: 270 mm^3
  tumor control: 2/6
  Response rate CR: 2
  Response rate NC: 2
  Response rate PR: 1
  Response rate PD: 1
  mice showing a tumor response: five out of six
  effect on tumor growth: strong tumor growth delay
[3]; 1.7 mg/kg i.p.
  PD: 9
  TR: 2
  RR: 18%
[3]; 5 mg/kg i.p.
  PD: 4
  TR: 7
  RR: 64%
[3]; 17 mg/kg i.p.
  PD: 2
  TR: 9
  RR: 82%
[3]; 50 mg/kg i.p.
  PD: 4
  TR: 7
  RR: 64%
[3]; 50 mg/kg, result in words
  effect on tumor growth: strongly inhibited tumor growth
[3]; 170 mg/kg i.p.
  PD: 4
  TR: 7
  RR: 64%
[3]; dose of 5 mg/kg, result in words
  effect on tumor growth: a delay in tumor growth was observed
[3]; higher dosages (above 5 mg/kg), result in words
  delay in tumor growth relative to 5 mg/kg: more pronounced

## O=C1CCC(N2C(=O)c3ccccc3C2=O)C(=O)N1 (stereo not drawn) [Thalidomide, reference compound]
[2]
  tumor volume day 21: 340 mm^3
  tumor control: 3/6
  Response rate CR: 2
  Response rate NC: 3
  Response rate PR: 1
  mice showing a tumor response: all animals
[3]; positive control group, result in words
  effect on tumor growth: only some tumor growth delay

## Ala Gln Gly Val (AQGV; Chemically synthesized antitumor peptide AQGV) [4-mer peptide, derivative of LQGV]
[2]
  tumor volume day 21: 1030 mm^3
  tumor control: 2/6
  Response rate NC: 1
  Response rate PR: 2
  Response rate PD: 3
  effect on tumor growth: tumor growth delay

## LAG
[2]
  tumor volume day 21: 1550 mm^3
  tumor control: 2/6
  Response rate CR: 1
  Response rate PR: 1
  Response rate PD: 4

## LQG
[2]
  tumor growth curves compared with thalidomide: comparable to Thalidomide; also recorded: comparable tumor growth curves
  tumor volume day 21: 620 mm^3
  tumor control: 3/6
  Response rate CR: 2
  Response rate NC: 4
  mice showing a tumor response: all animals
  effect on tumor growth: tumor growth delay

## Leu Ala Gly Val (LAGV; Chemically synthesized antitumor peptide LAGV) [4-mer peptide, derivative of LQGV]
[2]
  tumor volume day 21: 1600 mm^3
  tumor control: 2/6
  Response rate CR: 1
  Response rate NC: 1
  Response rate PR: 1
  Response rate PD: 3

## VLPALP (Chemically synthesized antitumor peptide VLPALP) [6-mer peptide]
[2]
  tumor volume day 21: 880 mm^3
  tumor control: 3/6
  Response rate CR: 2
  Response rate NC: 2
  Response rate PR: 1
  Response rate PD: 1
  mice showing a tumor response: five out of six
  effect on tumor growth: tumor growth delay
